Laboratory results as given in ChEMBL document CHEMBL4373714, “Absolute Configuration and Biological Activities of Meroterpenoids from an Endophytic Fungus of Lycium barbarum” (J Nat Prod, 2019).
Converted amounts (≈) assume the structure as drawn. Counter-ions that a name gives are not always drawn.

What was measured:
NCI-H226 [1] = experiment: Antiproliferative activity against human NCI-H226 cells assessed as reduction in cell viability at 10 uM after 24 hrs by CCK8 assay relative to control; assay type: functional; details: NCI-H226, 24 h
MDA-MB-231 [2] = experiment: Antiproliferative activity against human MDA-MB-231 cells assessed as reduction in cell viability at 10 uM after 24 hrs by CCK8 assay relative to control; assay type: functional; details: MDA-MB-231, 24 h
MDA-MB-231 [3] = experiment: Antiproliferative activity against human MDA-MB-231 cells assessed as reduction in cell viability after 24 hrs by CCK8 assay; assay type: functional, cell-based; details: MDA-MB-231, 24 h
NCI-H226 [4] = experiment: Antiproliferative activity against human NCI-H226 cells assessed as reduction in cell viability after 24 hrs by CCK8 assay; assay type: functional, cell-based; details: NCI-H226, 24 h
Bacillus subtilis = experiment: Antibacterial activity against Bacillus subtilis assessed as inhibition of bacterial growth after 24 hrs by microdilution method; assay type: functional
Pseudomonas viridiflava = experiment: Antibacterial activity against Pseudomonas viridiflava assessed as inhibition of bacterial growth after 24 hrs by microdilution method; assay type: functional
Clostridium perfringens = experiment: Antibacterial activity against Clostridium perfringens assessed as inhibition of bacterial growth after 24 hrs by microdilution method; assay type: functional
Staphylococcus aureus = experiment: Antibacterial activity against Staphylococcus aureus assessed as inhibition of bacterial growth after 24 hrs by microdilution method; assay type: functional
Escherichia coli = experiment: Antibacterial activity against Escherichia coli assessed as inhibition of bacterial growth after 24 hrs by microdilution method; assay type: functional

| SMILES | inhibition at 10 µM (NCI-H226 [1]) | inhibition at 10 µM (MDA-MB-231 [2]) | IC50 (MDA-MB-231 [3]) | IC50 (NCI-H226 [4]) | further results |
| --- | --- | --- | --- | --- | --- |
| CC[C@H](C)C(=O)[C@@H](C)C1=C(OC)C(=O)C2=C(O[C@]3(C)CC[C@H]4O[C@@H](C(C)(C)O)CC[C@]4(C)[C@H]3C2)C1=O | < 50% | < 50% |  |  |  |
| CC[C@H](C)C(=O)[C@@H](C)C1=C(OC)C(=O)C2=C(O[C@]3(C)CC[C@H]4O[C@@H](C(C)(C)O)CC[C@]4(C)[C@H]3[C@@H]2O)C1=O |  |  | 9.5 µM | > 10 µM |  |
| C/C=C(\C)C(=O)[C@@H](C)c1cc(O)c2c(c1O)O[C@]1(C)CC[C@H]3O[C@@H](C(C)(C)O)CC[C@]3(C)[C@H]1[C@@H]2O |  |  | 6.7 µM | 5.5 µM |  |
| CC[C@H](C)C(=O)[C@@H](C)c1cc(O)c2c(c1O)O[C@]1(C)CC[C@H]3O[C@@H](C(C)(C)O)CC[C@]3(C)[C@H]1[C@@H]2O | < 50% | < 50% |  |  |  |
| CC[C@@H](C)C(=O)[C@@H](C)c1cc(O)c2c(c1O)O[C@]1(C)CC[C@H]3O[C@@H](C(C)(C)O)CC[C@]3(C)[C@H]1C2=O | < 50% | < 50% |  |  |  |
| C/C=C(\C)[C@@H](OC(C)=O)[C@@H](C)C1=CC(=O)C2=C(O[C@]3(C)CC[C@H]4O[C@@H](C(C)(C)O)CC[C@]4(C)C3=C2)C1=O |  |  | 5.6 µM | > 10 µM |  |
| CCC(C)C(=O)c1coc2c3c(c(O)cc12)[C@@H](O)[C@@H]1[C@@]2(C)CC[C@H](C(C)(C)O)O[C@@H]2CC[C@@]1(C)O3 (stereo not given in full) | < 50% | < 50% |  |  |  |
| CC[C@@H](C)[C@@H](OC(C)=O)[C@@H](C)c1cc(O)c2c(c1O)O[C@]1(C)CC[C@H]3O[C@@H](C(C)(C)O)CC[C@]3(C)[C@H]1C2=O | < 50% | < 50% |  |  |  |
| C/C=C(\C)C(=O)[C@@H](C)C1=C(OC)C(=O)C2=C(O[C@]3(C)CC[C@H]4O[C@@H](C(C)(C)O)CC[C@]4(C)[C@H]3[C@@H]2O)C1=O |  |  | 7.5 µM | > 10 µM |  |
| CC[C@H](C)[C@@H](OC(C)=O)[C@@H](C)C1=C(N)C(=O)C2=C(O[C@]3(C)CC[C@H]4O[C@@H](C(C)(C)O)CC[C@]4(C)[C@H]3[C@@H]2O)C1=O | < 50% | < 50% |  |  |  |
| C/C=C(\C)C(=O)[C@@H](C)C1=CC(=O)C2=C(O[C@]3(C)CC[C@H]4O[C@@H](C(C)(C)O)CC[C@]4(C)[C@H]3[C@@H]2O)C1=O |  |  | 8.5 µM | > 10 µM |  |
| CC[C@H](C)[C@@H](OC(C)=O)[C@@H](C)C1=CC(=O)C2=C(O[C@]3(C)CC[C@H]4O[C@@H](C(C)(C)O)CC[C@]4(C)[C@H]3[C@@H]2O)C1=O [COCHLIOQUINONE A] | < 50% | < 50% |  |  |  |
| CC[C@H](C)C(=O)[C@@H](C)C1=CC(=O)C2=C(O[C@]3(C)CC[C@H]4O[C@@H](C(C)(C)O)CC[C@]4(C)[C@H]3C2)C1=O [COCHLIOQUINONE B] | < 50% | < 50% |  |  | MIC (Bacillus subtilis): 26 µM (≈ 12.3 µg/mL); MIC (Pseudomonas viridiflava): 26 µM (≈ 12.3 µg/mL); MIC (Clostridium perfringens): 26 µM (≈ 12.3 µg/mL) |
| CC[C@H](C)C(=O)[C@@H](C)C1=CC(=O)C2=C(O[C@]3(C)CC[C@H]4O[C@@H](C(C)(C)O)CC[C@]4(C)[C@H]3[C@@H]2O)C1=O [COCHLIOQUINONE C] | < 50% | < 50% |  |  | MIC (Bacillus subtilis): 26 µM (≈ 12.7 µg/mL); MIC (Pseudomonas viridiflava): 26 µM (≈ 12.7 µg/mL); MIC (Clostridium perfringens): 26 µM (≈ 12.7 µg/mL) |
| C/C=C(\C)C(=O)[C@@H](C)C1=CC(=O)C2=C(O[C@]3(C)CC[C@H]4O[C@@H](C(C)(C)O)CC[C@]4(C)[C@H]3C2)C1=O [COCHLIOQUINONE D] |  |  | 7.1 µM | 6.9 µM |  |
| COc1cccc2c1C(=O)c1c(O)c3c(c(O)c1C2=O)C[C@@](O)(C(=O)CO)C[C@@H]3O[C@H]1C[C@H](N)[C@H](O)[C@H](C)O1 [DOXORUBICIN HYDROCHLORIDE] |  |  | 0.3 µM | 0.3 µM |  |
| CC[C@H](C)[C@@H](OC(C)=O)[C@@H](C)c1cc(O)c2c(c1O)O[C@]1(C)CC[C@H]3O[C@@H](C(C)(C)O)CC[C@]3(C)[C@H]1C2=O [ISOCOCHLIOQUINONE A] | < 50% | < 50% |  |  |  |
| CC[C@H](C)C(=O)[C@@H](C)c1cc(O)c2c(c1O)O[C@]1(C)CC[C@H]3O[C@@H](C(C)(C)O)CC[C@]3(C)[C@H]1C2=O [ISOCOCHLIOQUINONE C] | < 50% | < 50% |  |  | MIC (Bacillus subtilis): 26 µM (≈ 12.7 µg/mL); MIC (Pseudomonas viridiflava): 26 µM (≈ 12.7 µg/mL); MIC (Clostridium perfringens): 26 µM (≈ 12.7 µg/mL) |
| CN(C)[C@@H]1C(O)=C(C(N)=O)C(=O)[C@@]2(O)C(O)=C3C(=O)c4c(O)cccc4[C@@](C)(O)[C@H]3C[C@@H]12 [TETRACYCLINE] |  |  |  |  | MIC (Staphylococcus aureus): 3.5 µM (≈ 1.56 µg/mL); MIC (Bacillus subtilis): 3.5 µM (≈ 1.56 µg/mL); MIC (Pseudomonas viridiflava): 3.5 µM (≈ 1.56 µg/mL); MIC (Escherichia coli): 3.5 µM (≈ 1.56 µg/mL); MIC (Clostridium perfringens): 3.5 µM (≈ 1.56 µg/mL) |
